The test system of data set [1] is Sprague Dawley rats. Briefly: Forced Swim Test (FST). It is filed as in vivo, rat. To be noted: for reduction in immobility (magnitude of the effect): single dose 30 min before testing. From the text:
The Forced Swim Test (FST) is a classic, and the most used preclinical behavioral assay to screen compounds with antidepressant-like activity and has high predictive and face validity (Porsolt et al. (1977) Nature 266:730; Borsini and Meli (1988) Psychopharmacology 94:147). The premise of the FST is that when rats are placed into a cylinder filled with water, they will initially try to escape, but over time will become immobile. This increased immobility reflects behavioral despair, modeling a depressive-like state.
Animals: Male Sprague Dawley rats (Charles River Laboratories) weighing 180-200 g on arrival, were used for this study which took place at Melior Discovery (Exton, PA). Rats acclimated to their home cages for at least one week before testing, were maintained in a controlled environment on a 12 h light/dark cycle, with no more than 2 rats per cage. Animals received ad libitum access to food and water and were assigned randomly to treatment groups. Animal use and procedures were in accordance with established protocols approved by the IACUC committee, Melior Standard Operation Procedures (SOP), and Transcend Therapeutics.
Forced Swim Test (FST): In the FST trial, rats were be placed in a circular plexiglass container filled with water, with no means of escape. Water temperature was maintained at 22-25° C. and changed for every animal. After an acclimation period, rats were timed for inactivity (failure to struggle), activity, swim time and climbing time. Day 1 consisted of a 15 min acclimation trial, and Day 2 (24 h later) consisted of the 5 min test. A time sampling procedure was employed where animals were observed every 5 sec and scored for immobility, swimming, or climbing. Fluoxetine (10 mg/kg, IP, Sigma Aldrich) or 0.9% sterile saline vehicle (vehicle 3× group) were administered 23.5, 5, and 1 h before testing in the FST. […] The experimenter was blinded to treatment.
Statistical Analysis: Data for each parameter of the test (immobility, swimming, or climbing) is expressed as the mean±SEM. Differences between groups were determined by one-way ANOVA and post-hoc Tukey's test with a p-value of less than 0.05 indicating statistically significant differences.
Forced Swim Test: In the FST trial, rats were be placed in a circular plexiglass container filled with water, with no means of escape. Water temperature was maintained at 22-25° C. and changed for every animal. After an acclimation period, rats were timed for inactivity (failure to struggle), activity, swim time and climbing time. Day 1 consisted of a 15 min acclimation trial, and Day 2 (24 h later) consisted of the 5 min test. A time sampling procedure was employed where animals were observed every 5 sec and scored for immobility, swimming, or climbing. Fluoxetine (10 mg/kg, IP, Sigma Aldrich) or 0.9% sterile saline vehicle (vehicle 3× group) were administered 23.5, 5, and 1 h before testing in the FST. 2C-B (2.5, 10, or 20 mg/kg, IP, Cayman Chemical) or 0.9% saline vehicle (vehicle 1× group) were administered 30 min prior to FST testing. The experimenter was blinded to treatment.
Drug Treatment: Fluoxetine (10 mg/kg, IP, Sigma Aldrich) or 0.9% sterile saline vehicle were administered 23.5, 5, and 1 h before testing in the FST. […] Control animals received fluoxetine alone, methylone alone, or saline vehicle.
Forced Swim Test: In the FST trial, rats were be placed in a circular plexiglass container filled with water, with no means of escape. Water temperature was maintained at 22-25° C. and changed for every animal. After an acclimation period, rats were timed for inactivity (failure to struggle), activity, swim time and climbing time. The experimenter and scorer were blind to treatment group. Day 1 consisted of a 15 min acclimation trial, and Day 2 (24 h later) consisted of the 5 min test. A time sampling procedure was employed where animals were observed every 5 sec and scored for immobility, swimming, or climbing. […]

For data set [2], the target named is T1, Human serotonin 5HT2B receptor (Homo sapiens, UniProt P41595).
T1 construct: host or cells: 5HT2B receptor expressing membranes
T1 sequence (P41595 whole entry): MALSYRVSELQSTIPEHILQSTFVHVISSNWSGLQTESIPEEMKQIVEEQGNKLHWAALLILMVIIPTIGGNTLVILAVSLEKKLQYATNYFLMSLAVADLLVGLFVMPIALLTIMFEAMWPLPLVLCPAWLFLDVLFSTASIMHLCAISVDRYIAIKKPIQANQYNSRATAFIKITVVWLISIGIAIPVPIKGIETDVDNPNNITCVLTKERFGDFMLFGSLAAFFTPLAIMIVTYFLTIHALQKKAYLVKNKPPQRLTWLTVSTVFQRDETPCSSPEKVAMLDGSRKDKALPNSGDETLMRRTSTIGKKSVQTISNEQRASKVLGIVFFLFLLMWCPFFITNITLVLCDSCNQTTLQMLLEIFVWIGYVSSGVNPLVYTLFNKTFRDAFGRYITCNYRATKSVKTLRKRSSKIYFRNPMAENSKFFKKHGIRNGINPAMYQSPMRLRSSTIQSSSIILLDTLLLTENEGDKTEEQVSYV
Nature of the data set: Competitive radioligand binding to 5HT2B receptor membrane preparations. To be noted: ratio of Ki values. As to the method:
Human serotonin 5HT2B receptor membrane preparations were divided into aliquots. On the day of the assay, membranes were diluted at 1:200 in incubation buffer. […] To each well was added 150 μL membrane preparation, 50 μL test compound, non-specific compound, or buffer alone, as well as 50 μL radioligand. The plate was incubated at 35° C. for 90 minutes with gentle agitation. […] For each concentration of drug, non-specific binding was subtracted from total binding to give specific binding. […] Ki was subsequently calculated using the ChengPrusoff equation.

Data set [3] concerns the target T1, Human serotonin 5HT2B receptor. To be noted: literature values; read-out: reported Ki; cited from earlier work.
Data set [4] deals with drug users / humans. To be noted: cited from earlier work.
Data set [5] deals with Sprague Dawley rats. Particulars: cited from earlier work.
In data set [6] the test system is mice. Particulars: MDMA 7.5 mg/kg 30 minutes prior to extinction training (Young 2015); cited from earlier work.
For data set [7] the following is noted: 13 of 77 deaths, meta-analysis; cited from earlier work.
For data set [8] the following is noted: depending on the animal model used and dosing conditions; cited from earlier work.
Data set [9] concerns mice. Nature of the data set: Fear extinction paradigm, mouse model of PTSD. It is filed as in vivo. Particulars: MBDB 5 mg/kg IP, day 2. The source says: (FIG. 9A) Schematic of experimental design. A single CS-US (tone-shock) pairing on day 1 was followed by 6 CS presentations in a novel context (context B). […] On day 3, the time spent freezing to the CS was quantified. […] (FIG. 9C) No locomotor changes were observed on day 3 (t(26)=1.073, p>0.05). Data are mean +/− SEM.
FIGS. 10A-10B: MBDB improves fear extinction in a mouse model of PTSD. A single CS-US (tone-shock) pairing on day 1 was followed by 6 conditioned stimulus (CS) presentations in a novel context (context B). MBDB or saline vehicle was injected 30 min prior to extinction training on day 2. The time spent freezing to the CS was quantified on […]. […] Data are mean +/− SEM. N=10 for MBDB group (5 mg/kg, IP) and N=16 for saline control group. **p<0.01 vs. vehicle control group.
Effective PTSD treatments facilitate the disassociation between a traumatic memory and the patient's fear response, making cues for the traumatic memory evoke less of a fear response. This is modeled in the mouse fear extinction paradigm (see FIG. 9A) which takes place over 3 days. On day 1 (fear conditioning), mice are trained to acquire a “traumatic memory,” namely associating the conditioned stimulus (CS, tone) to the unconditioned stimulus (US, foot shock). On day 2 (extinction training), they are trained to forget the traumatic memory association by presenting the CS 6 times (with no US) in a novel environment. On day 3 (extinction recall), the mice are “asked” if that tone (CS) still elicits a fearful response, as measured by the time spent freezing when the tone is presented. Less time freezing means better extinction recall. Drugs that improve extinction recall reduce freezing time on day 3, and, therefore, show potential as a PTSD treatment.

Data set [10] deals with serotonergic terminals in the cortex and hippocampus. To be noted: 25 mg/kg IP every 12 hours for 4 days; 2 weeks post-treatment; cited from earlier work.

Where two headings read alike, the source gives them in different places.

Take `CNCCC(Oc1ccc(C(F)(F)F)cc1)c1ccccc1` (centres unmarked) [fluoxetine, reference compound]: the swimming behavior entry in data set [1] (Example 8) is listed as “significantly increased swimming behavior”. Besides, the reduction in immobility in data set [1] (fluoxetine 10 mg/kg IP at 23.5, 5 and 1 h before testing (Examples 6 and 7)) is listed as 56%. For the same compound, the “reduced immobility compared to vehicle” value in data set [1] (fluoxetine alone, 10 mg/kg IP x3 (Example 8)) is reported as 60%.
As a reminder, the Ki is a dissociation constant, usually derived from enzyme kinetics or from competition with a known ligand. Consider `CC(N)Cc1ccc2c(c1)OCO2` (centres unmarked) [MDA], for which the “greater affinity for the 5HT2B receptor compared with methylone” value in data set [2] was found to be 37 times. The Ki in [3] is 100 nM.
Take `COc1cc(CCN)c(OC)cc1Br` [2C-B, 4-Bromo-2,5-dimethoxyphenethylamine]: the adverse effects entry in data set [4] (self-administered 2C-B, 10 to 20 mg, experienced drug users) was “no serious adverse effects”. In data set [1] (2C-B 2.5, 10, 20 mg/kg IP), the climbing entry was “significantly decreased only in the high-dose group”. For the same compound, the “reduction in immobility (magnitude of the effect)” value is on record as 53% in data set [1] (2C-B high-dose (20 mg/kg IP)) and 50% in data set [1] (2C-B mid-dose (10 mg/kg IP)). Further, the swimming entry in data set [1] (single dose of 2C-B 30 minutes before testing) is “significant increase in swimming”.
On to `CCN(CC)C(=O)[C@@H]1C=C2c3cccc4[nH]cc(c34)C[C@H]2N(C)C1` [LSD, lysergic acid-N,N-diethylamide], for which the “reduction in immobility in the FST, previous reports” value in data set [5] (literature (Hibicke 2020; Yang 2013; Tizabi 2012)) is on record as 38%.
As usually defined, the half-life is the time needed for the level to fall by half in the phase considered. With `CNC(C)Cc1ccc2c(c1)OCO2` (centres unmarked) [MDMA, 3,4-Methylenedioxymethamphetamine], the “reduction in immobility, reported” value in data set [5] (MDMA 5 mg/kg, Flinders Sensitive Line rats (Majumder 2011)) is recorded as 45%; in data set [5] (MDMA 5 mg/kg, Sprague Dawley rats (Majumder 2011)), 45%; in data set [5] (MDMA 10 mg/kg, Flinders Sensitive Line rats (Majumder 2011)) it was 93%; in [5] (MDMA 10 mg/kg, Sprague Dawley rats (Majumder 2011)), 78%. In addition, the “greater affinity for the 5HT2B receptor compared with methylone” value in data set [2] is recorded as 7.5 times. Moreover, the “reduced freezing compared to saline injected controls (extinction recall)” value in [6] is listed as 35%. In data set [7], the “blood concentration in deaths attributable to MDMA alone” value was 478 to 53900 ng/mL. The half-life in data set [8] is 5 to 7 h.
Take `CCC(Cc1ccc2c(c1)OCO2)NC` (racemic) [MBDB, N-methyl-1-(1,3-benzodioxol-5-yl)-2-aminobutane]: in data set [9], the “extinction acquisition on the first trial of extinction training” value is “improved extinction acquisition” and the locomotor activity result is “small, but significant increase”. Moreover, the adverse effects entry in data set [4] (self-administered MBDB under supervision, 100 to 300 mg) is “no serious adverse effects”. Also, in [1] (MBDB IP 30 min before testing), the climbing result is “significantly reduced only at the highest dose” and the swimming entry is listed as “robustly increased at all doses tested”. Also, in [1] (MBDB IP 30 min before testing, all doses tested (15-30 mg/kg)), the immobility entry is “significantly reduced immobility”. Besides, the “serotonergic terminals destroyed in the cortex and hippocampus” value in [10] is given as 55-60%.

Values taken from patent US20250221957A1, “PS[…] AND THEIR USE FOR TREATING […] AND NE[…] DISORDERS” (Transcend Therapeutics, Inc., priority 2021, published 2025).
